Calls of active or inactive are those of the source. The rule behind the calls is not given here.
How the values were obtained:
[1] = system: DU-145; assay: Induction of apoptosis in human DU-145 cells assessed as decrease in pro-caspase-3 expression by Western blot assay; assay type: functional, cell-based
[2] = system: HT-29; assay: Antiproliferative activity against human HT29 cells assessed as reduction in cell viability incubated for 48 hr by MTT assay; assay type: functional, cell-based; conditions: HT-29, 48 h
[3] = system: HT-29; assay: Induction of apoptosis in human HT-29 cells assessed as decrease in PARP protein expression by Western blot assay; assay type: functional, cell-based
[4] = system: PC-3; assay: Induction of cell cycle arrest in human PC3 cells assessed as accumulation at sub-G1 phase at IC50 incubated for 48 hrs by RNaeA/propidium iodide based flow cytometry analysis (reference value: 0 %); assay type: functional
[5] = system: HT-29; assay: Induction of apoptosis in human HT-29 cells assessed as increase in caspase-3 level by Western blot assay; assay type: functional, cell-based
[6] = system: HT-29; assay: Induction of apoptosis in human HT-29 cells assessed as decrease in pro-caspase-3 expression by Western blot assay; assay type: functional, cell-based
[7] = system: PC-3; assay: Induction of cell cycle arrest in human PC-3 cells assessed as decrease in cyclin A2 expression by Western blot analysis; assay type: functional, cell-based
[8] = system: DU-145; assay: Induction of apoptosis in human DU-145 cells assessed as late apoptotic cells incubated for 48 hrs by annexin-V/FITC and propidium iodide staining based flow cytometry analysis (reference value: 2.56 %); assay type: functional
[9] = system: PC-3; assay: Induction of apoptosis in human PC-3 cells assessed as late apoptotic cells incubated for 48 hrs by annexin-V/FITC and propidium iodide staining based flow cytometry analysis (reference value: 2.13 %); assay type: functional
[10] = system: HCT-116; assay: Induction of apoptosis in human HCT-116 cells assessed as late apoptotic cells incubated for 48 hrs by annexin-V/FITC and propidium iodide staining based flow cytometry analysis (reference value: 7.22 %); assay type: functional
[11] = system: PC-3; assay: Induction of cell cycle arrest in human PC3 cells assessed as accumulation at G1 phase at IC50 incubated for 48 hrs by RNaeA/propidium iodide based flow cytometry analysis (reference value: 42.61 %); assay type: functional
[12] = system: PC-3; assay: Antiproliferative activity against human PC3 cells assessed as reduction in cell viability incubated for 48 hr by MTT assay; assay type: functional, cell-based; conditions: PC-3, 48 h
[13] = system: HCT-116; assay: Antiproliferative activity against human HCT116 cells assessed as reduction in cell viability incubated for 48 hr by MTT assay; assay type: functional, cell-based; conditions: HCT-116, 48 h
[14] = system: HCT-116; assay: Induction of cell cycle arrest in human HCT-116 cells assessed as increase in Cyclin E2 expression by Western blot analysis; assay type: functional, cell-based
[15] = system: PC-3; assay: Induction of apoptosis in human PC-3 cells assessed as decrease in pro-caspase-3 expression by Western blot assay; assay type: functional, cell-based
[16] = system: HT-29; assay: Induction of cell cycle arrest in human HT-29 cells assessed as accumulation at S phase at IC50 incubated for 48 hrs by RNaeA/propidium iodide based flow cytometry analysis (reference value: 32.45 %); assay type: functional
[17] = system: HCT-116; assay: Induction of cell cycle arrest in human HCT-116 cells assessed as increase in p21 expression by Western blot analysis; assay type: functional, cell-based
[18] = system: PC-3; assay: Induction of apoptosis in human PC-3 cells assessed as increase in DNA fragmentation after 48 hrs by ELISA relative to control; assay type: functional
[19] = system: PC-3; assay: Induction of apoptosis in human PC-3 cells assessed as necrotic cells incubated for 48 hrs by annexin-V/FITC and propidium iodide staining based flow cytometry analysis (reference value: 0.54 %); assay type: functional
[20] = molecular target: Tubulin (Homo sapiens) (UniProt P68371+Q9H4B7+P0DPH7+P68366+Q13509+Q71U36+P04350+Q3ZCM7+P07437+P68363+Q9BQE3+Q6PEY2+Q13885+Q9BVA1+Q9BUF5); assay: Inhibition of tubulin polymerization in human HeLa cells measured after 2 hrs by fluorescent immunostaining method; assay type: cell-based
[21] = system: DU-145; assay: Induction of apoptosis in human DU-145 cells assessed as increase in DNA fragmentation after 48 hrs by ELISA relative to control; assay type: functional
[22] = system: DU-145; assay: Antiproliferative activity against human DU145 cells assessed as reduction in cell viability incubated for 48 hr by MTT assay; assay type: functional, cell-based; conditions: DU-145, 48 h
[23] = system: HT-29; assay: Induction of cell cycle arrest at G1 phase in human HT-29 cells assessed as reduction in CDK2 expression by Western blot analysis; assay type: functional, cell-based
[24] = system: HCT-116; assay: Induction of cell cycle arrest in human HCT-116 cells assessed as accumulation at sub-G1 phase at IC50 incubated for 48 hrs by RNaeA/propidium iodide based flow cytometry analysis (reference value: 0.67 %); assay type: functional
[25] = system: PC-3; assay: Induction of cell cycle arrest in human PC-3 cells assessed as increase in p21 expression by Western blot analysis; assay type: functional, cell-based
[26] = system: HT-29; assay: Induction of cell cycle arrest at G1 phase in human HT-29 cells assessed as reduction in CDK6 expression by Western blot analysis; assay type: functional, cell-based
[27] = system: HCT-116; assay: Induction of cell cycle arrest in human HCT-116 cells assessed as accumulation at S phase at IC50 incubated for 48 hrs by RNaeA/propidium iodide based flow cytometry analysis (reference value: 30.68 %); assay type: functional
[28] = system: DU-145; assay: Induction of apoptosis in human DU-145 cells assessed as early apoptotic cells incubated for 48 hrs by annexin-V/FITC and propidium iodide staining based flow cytometry analysis (reference value: 3.27 %); assay type: functional
[29] = system: HT-29; assay: Induction of cell cycle arrest in human HT-29 cells assessed as accumulation at sub-G1 phase at IC50 incubated for 48 hrs by RNaeA/propidium iodide based flow cytometry analysis (reference value: 0.12 %); assay type: functional
[30] = system: HT-29; assay: Induction of apoptosis in human HT-29 cells assessed as late apoptotic cells incubated for 48 hrs by annexin-V/FITC and propidium iodide staining based flow cytometry analysis (reference value: 9.52%); assay type: functional
[31] = system: HCT-116; assay: Induction of cell cycle arrest in human HCT-116 cells assessed as accumulation at G2 phase at IC50 incubated for 48 hrs by RNaeA/propidium iodide based flow cytometry analysis (reference value: 17.76 %); assay type: functional
[32] = system: DU-145; assay: Induction of cell cycle arrest in human DU-145 cells assessed as increase in p21 expression by Western blot analysis; assay type: functional, cell-based
[33] = system: HCT-116; assay: Induction of apoptosis in human HCT-116 cells assessed as increase in cleaved PARP protein expression by Western blot assay; assay type: functional, cell-based
[34] = system: HT-29; assay: Induction of cell cycle arrest in human HT-29 cells assessed as accumulation at G1 phase at IC50 incubated for 48 hrs by RNaeA/propidium iodide based flow cytometry analysis (reference value: 54.39 %); assay type: functional

## COc1cc(C(=O)/C=C/c2ccc(OCCCNCCCNCCCCN)cc2)cc(OC)c1OC
[1]
  Activity: Active
[2]
  IC50: 10.8 µM
[3]
  Activity: Active
[4]
  Activity: 26.99%
[5]
  Activity: Active
[6]
  Activity: Active
[7]
  Activity: Active
[8]
  Activity: 8.74%
[9]
  Activity: 12.65%
[10]
  Activity: 21.6%
[11]
  Activity: 19.12%
[12]
  IC50: 13.7 µM
[13]
  IC50: 8.13 µM
[14]
  Activity: Active
[15]
  Activity: Active
[16]
  Activity: 26.03%
[17]
  Activity: Active
[18]
  fold change (FC): 6.53
[19]
  Activity: 2.63%
[20]
  inhibition: inactive
[21]
  fold change (FC): 4.88
[22]
  IC50: 8.86 µM
[23]
  Activity: Active
[24]
  Activity: 24.17%
[25]
  Activity: Active
[26]
  Activity: Active
[27]
  Activity: 14.4%
[28]
  Activity: 52.25%
[29]
  Activity: 7.07%
[30]
  Activity: 31.39%
[31]
  Activity: 19.93%
[32]
  Activity: Active
[33]
  Activity: Active
[34]
  Activity: 60.65%
